Molecular target: T1, purified recombinant human p38 alpha MAPK (Homo sapiens, UniProt Q16539)
T1 construct: purchased Millipore, USA
Assay: Inhibition of p38 alpha MAPK activity: TR-FRET kinase assay
Format: biochemical
Settings: Concentration 1 μM; for inhibition at 1 µM: read-out: P38α Inhibition
Description: Inhibition of p38 Alpha MAPK Activity: Time-Resolved Fluorescence Resonance Energy Transfer Kinase Standard Assay (TR-FRET Assay)
Compounds of present invention at various concentrations were premixed with DMSO. The experiment was initiated by mixing 0.5% 1.0% DMSO as vehicle/compounds with purified recombinant human p38 alpha MAPK (Millipore, USA) in the wells and 15 min incubation at RT. Thereafter, 30 nM of Biotinylated GST-ATF2 (Activation Transcription Factor2) and 100 μM of ATP were added in to the wells containing reaction mixture, followed by reincubation for 60 minutes at RT. Reaction was terminated by addition of 10 mM of EDTA and detection reagent containing anti-phosphothreonine ATF2 antibody (Perkin Elmer, USA) labelled with europium chelate and APC (Allophycocyanin) labeled streptavidin, into the reaction mixture which was further incubated for 60 minutes at room temperature. The degree of phosphorylation of the substrate (GST-ATF2) was measured using Envision multimode reader (Perkin Elmer). Percentage inhibition of p38 kinase activity was calculated by determining ratio of specific europium 665 nm energy transfer signal to reference 615 nm signal.

T1 sequence (Q16539 whole entry): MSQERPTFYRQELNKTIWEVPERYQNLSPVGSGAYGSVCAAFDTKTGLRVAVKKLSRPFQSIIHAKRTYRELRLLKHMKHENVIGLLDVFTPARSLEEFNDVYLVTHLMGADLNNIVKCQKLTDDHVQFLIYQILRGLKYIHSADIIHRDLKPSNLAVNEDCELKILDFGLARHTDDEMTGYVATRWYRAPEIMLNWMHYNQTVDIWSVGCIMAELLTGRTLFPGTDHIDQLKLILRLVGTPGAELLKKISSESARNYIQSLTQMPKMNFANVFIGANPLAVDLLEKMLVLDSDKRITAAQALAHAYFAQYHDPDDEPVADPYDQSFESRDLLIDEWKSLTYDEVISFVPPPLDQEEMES

inhibition at 1 µM [%] | P38α Inhibition | Compound
80 to 100 |  | CCOC(=O)CSCc1cn2c(n1)sc1cc(Oc3ccccc3CNC(=O)Nc3cc(C(C)(C)C)nn3-c3ccc(O)c(Cl)c3)ccc12 [Compound 30, ethyl {[(7-{2-[({[3-tert-butyl-1-(3-chloro-4-hydroxyphenyl)-1H-pyrazol-5-yl]carbamoyl}amino)methyl]phenoxy}imidazo[2,1-b][1,3]benzothiazol-2-yl)methyl]sulfanyl}acetate]
40 to 60 |  | CCOC(=O)c1cnc2sc3cc(Oc4ccccc4CNC(=O)Nc4ccc(OC)c(Cl)c4)ccc3n12 [Compound 44, ethyl 7-[2-({[(3-chloro-4-methoxyphenyl)carbamoyl]amino}methyl)phenoxy]imidazo[2,1-b][1,3]benzothiazole-3-carboxylate]
80 to 100 |  | CC(C)(C)c1cc(NC(=O)NCc2ccccc2Oc2ccc3c(c2)sc2ncc(CO)n23)n(-c2ccc(O)cc2)n1 [Compound 16, 1-[3-tert-butyl-1-(4-hydroxyphenyl)-1H-pyrazol-5-yl]-3-(2-{[3-(hydroxymethyl)imidazo[2,1-b][1,3]benzothiazol-7-yl]oxy}benzyl)urea]
40 to 60 |  | Cc1ccc(-n2nc(C(C)(C)C)cc2NC(=O)Nc2ccc(Oc3ccc4c(c3)sc3nc(C(=O)NC(CO)c5ccccc5)cn34)cc2)cc1 (stereo not shown) [Compound 3, 7-[4-({[3-tert-butyl-1-(4-methylphenyl)-1H-pyrazol-5-yl]carbamoyl}amino)phenoxy]-N-(2-hydroxy-1-phenylethyl)imidazo[2,1-b][1,3]benzothiazole-2-carboxamide]
80 to 100 |  | CCOC(=O)c1cnc2sc3cc(Oc4ccccc4CNC(=O)Nc4cc(C(C)(C)C)nn4-c4ccc(O)cc4)ccc3n12 [Compound 17, Ethyl 7-{2-[({[3-tert-butyl-1-(4-hydroxyphenyl)-1H-pyrazol-5-yl]carbamoyl}amino)methyl]phenoxy}imidazo[2,1-b][1,3]benzothiazole-3-carboxylate]
80 to 100 |  | CN(CCO)C(=O)c1cnc2sc3cc(Oc4ccccc4CNC(=O)Nc4cc(C(C)(C)C)nn4-c4ccc(O)c(Cl)c4)ccc3n12 [Compound 28, 7-{2-[({[3-tert-butyl-1-(3-chloro-4-hydroxyphenyl)-1H-pyrazol-5-yl]carbamoyl}amino)methyl]phenoxy}-N-(2-hydroxyethyl)-N-methylimidazo[2,1-b][1,3]benzothiazole-3-carboxamide]
40 to 60 |  | CC(C)(C)c1cc(NC(=O)NCc2ccccc2Sc2ccc3c(c2)sc2ncc(C(=O)O)n23)n(-c2ccc(O)c(Cl)c2)n1 [Compound 24, 7-({2-[({[3-tert-butyl-1-(3-chloro-4-hydroxyphenyl)-1H-pyrazol-5-yl]carbamoyl}amino)methyl]phenyl}sulfanyl)imidazo[2,1-b][1,3]benzothiazole-3-carboxylic acid]
40 to 60 |  | CC(C)(C)c1cc(NC(=O)Nc2ccc(Sc3ccc4c(c3)sc3ncc(CO)n34)cc2)n(-c2ccc(O)cc2)n1 [Compound 18, 1-[3-tert-butyl-1-(4-hydroxyphenyl)-1H-pyrazol-5-yl]-3-(4-{[3-(hydroxymethyl)imidazo[2,1-b][1,3]benzothiazol-7-yl]sulfanyl}phenyl)urea]
80 to 100 |  | CC(C)(C)c1cc(NC(=O)NCc2ccccc2Oc2ccc3c(c2)sc2ncc(C(=O)NCCO)n23)n(-c2ccc(O)c(Cl)c2)n1 [Compound 20, 7-{2-[({[3-tert-butyl-1-(3-chloro-4-hydroxyphenyl)-1H-pyrazol-5-yl]carbamoyl}amino)methyl]phenoxy}-N-(2-hydroxyethyl)imidazo[2,1-b][1,3]benzothiazole-3-carboxamide]
80 to 100 |  | CC(C)(C)c1cc(NC(=O)NCc2ccccc2Oc2ccc3c(c2)sc2ncc(CN4CCSCC4)n23)n(-c2ccc(O)c(Cl)c2)n1 [Compound 29, 1-[3-tert-butyl-1-(3-chloro-4-hydroxyphenyl)-1H-pyrazol-5-yl]-3-(2-{[3-(thiomorpholin-4-ylmethyl)imidazo[2,1-b][1,3]benzothiazol-7-yl]oxy}benzyl)urea]
60 to 80 |  | CCOC(=O)c1cnc2sc3cc(Oc4ccccc4CNC(=O)Nc4cc(C(C)(C)C)nn4-c4ccccc4)ccc3n12 [Compound 67, ethyl 7-[2-({[(3-tert-butyl-1-phenyl-1H-pyrazol-5-yl)carbamoyl]amino}methyl)phenoxy]imidazo[2,1-b][1,3]benzothiazole-3-carboxylate]
80 to 100 |  | CC(C)(C)c1cc(NC(=O)NCc2ccccc2Oc2ccc3c(c2)sc2ncc(CN4CCOCC4)n23)n(-c2ccc(O)c(Cl)c2)n1 [Compound 35, 1-[3-tert-butyl-1-(3-chloro-4-hydroxyphenyl)-1H-pyrazol-5-yl]-3-(2-{[3-(morpholin-4-ylmethyl)imidazo[2,1-b][1,3]benzothiazol-7-yl]oxy}benzyl)urea]
80 to 100 |  | CC(C)(C)c1cc(NC(=O)NCc2ccccc2Oc2ccc3c(c2)sc2ncc(C(=O)O)n23)n(-c2ccc(O)c(Cl)c2)n1 [Compound 19, 7-{2-[({[3-tert-butyl-1-(3-chloro-4-hydroxyphenyl)-1H-pyrazol-5-yl]carbamoyl}amino)methyl]phenoxy}imidazo[2,1-b][1,3]benzothiazole-3-carboxylic acid]
80 to 100 |  | CC(C)(C)c1cc(NC(=O)NCc2ccccc2Oc2ccc3c(c2)sc2ncc(C(=O)NCCO)n23)n(-c2ccc(O)cc2)n1 [Compound 14, 7-{2-[({[3-tert-butyl-1-(4-hydroxyphenyl)-1H-pyrazol-5-yl]carbamoyl}amino)methyl]phenoxy}-N-(2-hydroxyethyl)imidazo[2,1-b][1,3]benzothiazole-3-carboxamide]
≤ 20 |  | CCOC(=O)c1cnc2sc3cc(Oc4ccc(NC(=O)Nc5ccc(Cl)c(C(F)(F)F)c5)cc4)ccc3n12 [Compound 47, ethyl 7-[4-({[4-chloro-3-(trifluoromethyl)phenyl]carbamoyl}amino)phenoxy]imidazo[2,1-b][1,3]benzothiazole-3-carboxylate]
≤ 20 |  | CCOC(=O)c1cnc2sc3cc(Oc4ccccc4CNC(=O)NC4CCCCC4)ccc3n12 [Compound 46, ethyl 7-(2-{[(cyclohexylcarbamoyl)amino]methyl}phenoxy)imidazo[2,1-b][1,3]benzothiazole-3-carboxylate]
 | ++ (++ = Inhibition ≥20% ≤ 40%) | 7-{[4-({[3-tert-butyl-1-(4-hydroxyphenyl)-1H-pyrazol-5-yl]carbamoyl}amino)phenyl]sulfanyl}-N-(2-hydroxyethyl)imidazo[2,1-b][1,3]benzothiazole-3-carboxamide [Compound 11]
60 to 80 |  | Cc1cnc(-c2cnc3sc4cc(Oc5ccccc5CNC(=O)Nc5cc(C(C)(C)C)nn5-c5ccc(O)c(Cl)c5)ccc4n23)o1 [Compound 64, 1-[3-tert-butyl-1-(3-chloro-4-hydroxyphenyl)-1H-pyrazol-5-yl]-3-(2-{[3-(5-methyl-1,3-oxazol-2-yl)imidazo[2,1-b][1,3]benzothiazol-7-yl]oxy}benzyl)urea]
80 to 100 |  | COCc1c(C)nc2sc3cc(Oc4ccccc4CNC(=O)Nc4ccc(Cl)c(C(F)(F)F)c4)ccc3n12 [Compound 49, 1-[4-chloro-3-(trifluoromethyl)phenyl]-3-(2-{[3-(methoxymethyl)-2-methylimidazo[2,1-b][1,3]benzothiazol-7-yl]oxy}benzyl)urea]
60 to 80 |  | COc1ccc(-n2nc(C(C)(C)C)cc2NC(=O)Nc2ccc(Oc3ccc4c(c3)sc3ncc(CO)n34)cc2)cc1 [Compound 15, 1-[3-tert-butyl-1-(4-methoxyphenyl)-1H-pyrazol-5-yl]-3-(4-{[3-(hydroxymethyl)imidazo[2,1-b][1,3]benzothiazol-7-yl]oxy}phenyl)urea]
≤ 20 |  | CCOC(=O)c1cnc2sc3cc(Oc4ccccc4CNC(=O)NC(CO)c4ccccc4)ccc3n12 (stereo not shown) [Compound 42, ethyl 7-[2-({[(2-hydroxy-1-phenylethyl)carbamoyl]amino}methyl)phenoxy]imidazo[2,1-b][1,3]benzothiazole-3-carboxylate]
80 to 100 |  | CC(C)(C)c1cc(NC(=O)NCc2ccccc2Oc2ccc3c(c2)sc2ncc(CSCCO)n23)n(-c2ccc(O)c(Cl)c2)n1 [Compound 23, 1-[3-tert-butyl-1-(3-chloro-4-hydroxyphenyl)-1H-pyrazol-5-yl]-3-{2-[(3-{[(2-hydroxyethyl)sulfanyl]methyl}imidazo[2,1-b][1,3]benzothiazol-7-yl)oxy]benzyl}urea]
80 to 100 |  | CC(C)(C)c1cc(NC(=O)Nc2ccc(Sc3ccc4c(c3)sc3ncc(C(=O)O)n34)cc2)n(-c2ccc(O)cc2)n1 [Compound 9, 7-{[4-({[3-tert-butyl-1-(4-hydroxyphenyl)-1H-pyrazol-5-yl]carbamoyl}amino)phenyl]sulfanyl}imidazo[2,1-b][1,3]benzothiazole-3-carboxylic acid]
 | +++++ (+++++ = Inhibition ≥80% ≤ 100%) | 1-(3-tert-butyl-1-phenyl-1H-pyrazol-5-yl)-3-(2-{[3-(hydroxymethyl)-2-methylimidazo[2,1-b][1,3]benzothiazol-7-yl]oxy}benzyl)urea [Compound 38]
60 to 80 |  | CC(C)(C)c1cc(NC(=O)NCc2ccccc2Oc2ccc3c(c2)sc2ncc(COCC4CC4)n23)n(-c2ccc(O)c(Cl)c2)n1 [Compound 56, 1-[3-tert-butyl-1-(3-chloro-4-hydroxyphenyl)-1H-pyrazol-5-yl]-3-[2-({3-[(cyclopropylmethoxy)methyl]imidazo[2,1-b][1,3]benzothiazol-7-yl}oxy)benzyl]urea]
